Values joined by “and” are separate entries in the source; they are usually repeats but may differ in a detail not shown here. Identical values can stand only once. “Also recorded” adds a separate entry of the source.
Tests used:
human LRRK2 (WT-LRRK2) = target: T1, human LRRK2 (WT-LRRK2) (Homo sapiens, UniProt Q5S007); assay: LRRK2 pSer935 quantitative western immunoblot in HEK293 cells stably overexpressing WT-LRRK2; assay type: cell-based
T1 construct: WT-LRRK2 or G2019S-LRRK2 overexpressing cells show expression of LRRK2 pSer1292 and full-length LRRK2; expressed in transfected cells
Method: (§1) Cells were plated at a density of 0.3 × 10^6 cells in a 6-well dish and treated at ~40–50% confluency. At the time of harvest, cells were collected and either protein collected or DNA extracted as described below.
(§2) For LRRK2-WT or G2019S-LRRK2, ~1.5 million cells were pelleted and resuspended in 75 μl of lysis buffer [(RIPA Buffer (Sigma-Aldrich, R0278-50ML), protease inhibitor cocktail (Sigma-Aldrich, P8340), and Halt phosphatase inhibitor cocktail (Thermo Fisher, 78420)]. For LCLs, five million cells were pelleted and resuspended in 100 µl of lysis buffer. For both types of cells lysates were centrifuged at 10,000 × g after a 10 min incubation on ice, and the supernatant was collected. Protein was quantified using the DC protein assay (Bio-Rad, 5000112). In total, 50 μg of protein was loaded for HEK293 LRRK2-WT or G2019S-LRRK2 cells. Due to the differing endogenous LRRK2 levels, 40 µg of ND02559, 60 µg of ND00264, or 100 µg of ND00011 and ND01618 of protein sample was loaded. Protein samples were incubated at 100 °C for 5 min with NuPAGE Sample loading dye (Thermo Fisher, NP0007) and dithiothreitol as reducing agent. […] Fluorescence intensities were quantified using ImageStudio Lite software (LI-COR), and the signal from the protein of interest was normalized to the fluorescence intensity of either LRRK2 or β-actin. […]

[1] = target: T2, G2019S variant of human LRRK2 (G2019S-LRRK2) (Homo sapiens, UniProt Q5S007, G2019S); assay: LRRK2 pSer935 quantitative western immunoblot in HEK293 cells stably overexpressing G2019S-LRRK2; assay type: cell-based
T2 construct: WT-LRRK2 or G2019S-LRRK2 overexpressing cells show expression of LRRK2 pSer1292 and full-length LRRK2; expressed in transfected cells
Method: as §1
For LRRK2-WT or G2019S-LRRK2, ~1.5 million cells were pelleted and resuspended in 75 μl of lysis buffer [(RIPA Buffer (Sigma-Aldrich, R0278-50ML), protease inhibitor cocktail (Sigma-Aldrich, P8340), and Halt phosphatase inhibitor cocktail (Thermo Fisher, 78420)]. For LCLs, five million cells were pelleted and resuspended in 100 µl of lysis buffer. For both types of cells lysates were centrifuged at 10,000 × g after a 10 min incubation on ice, and the supernatant was collected. Protein was quantified using the DC protein assay (Bio-Rad, 5000112). In total, 50 μg of protein was loaded for HEK293 LRRK2-WT or G2019S-LRRK2 cells. Due to the differing endogenous LRRK2 levels, 40 µg of ND02559, 60 µg of ND00264, or 100 µg of ND00011 and ND01618 of protein sample was loaded. Protein samples were incubated at 100 °C for 5 min with NuPAGE Sample loading dye (Thermo Fisher, NP0007) and dithiothreitol as reducing agent. After 4–20% SDS-PAGE, the blots were blocked in 5% w/v nonfat dry milk in 1X PBST (0.05% Tween 20). For our investigations, the following primary antibodies were used: mouse anti-LRRK2 N241a (Antibodies INC, 75-253, 1:5000 for HEK293 cells and 1:2000 for LCLs), rabbit anti-LRRK2 pS935 (Abcam, ab133450, 1:10,000 for HEK293 cells and 1:2000 for LCLs), mouse anti-β-actin (Novus, 8H10D10, 1:10,000), and rabbit anti-LRRK2 pS1292 (Abcam, ab203181, 1:500). The blots were then probed with fluorescent-labeled secondary antibodies, IRDye donkey anti-mouse and anti-rabbit at 1:10,000 (LI-COR, 926-32212, 926-68072), and scanned using an Odyssey Imaging scanner (LI-COR). Fluorescence intensities were quantified using ImageStudio Lite software (LI-COR), and the signal from the protein of interest was normalized to the fluorescence intensity of either LRRK2 or β-actin. […]

[2] = target: T2, G2019S variant of human LRRK2 (G2019S-LRRK2); assay: LRRK2 pSer1292 autophosphorylation western immunoblot in HEK293 cells stably overexpressing G2019S-LRRK2; assay type: cell-based; conditions: for decrease in LRRK2 pSer1292 levels: G2019S-LRRK2 cells, 2 h
Method: as §1
For LRRK2-WT or G2019S-LRRK2, ~1.5 million cells were pelleted and resuspended in 75 μl of lysis buffer [(RIPA Buffer (Sigma-Aldrich, R0278-50ML), protease inhibitor cocktail (Sigma-Aldrich, P8340), and Halt phosphatase inhibitor cocktail (Thermo Fisher, 78420)]. For LCLs, five million cells were pelleted and resuspended in 100 µl of lysis buffer. For both types of cells lysates were centrifuged at 10,000 × g after a 10 min incubation on ice, and the supernatant was collected. Protein was quantified using the DC protein assay (Bio-Rad, 5000112). In total, 50 μg of protein was loaded for HEK293 LRRK2-WT or G2019S-LRRK2 cells. Due to the differing endogenous LRRK2 levels, 40 µg of ND02559, 60 µg of ND00264, or 100 µg of ND00011 and ND01618 of protein sample was loaded. Protein samples were incubated at 100 °C for 5 min with NuPAGE Sample loading dye (Thermo Fisher, NP0007) and dithiothreitol as reducing agent. After 4–20% SDS-PAGE, the blots were blocked in 5% w/v nonfat dry milk in 1X PBST (0.05% Tween 20). For our investigations, the following primary antibodies were used: mouse anti-LRRK2 N241a (Antibodies INC, 75-253, 1:5000 for HEK293 cells and 1:2000 for LCLs), rabbit anti-LRRK2 pS935 (Abcam, ab133450, 1:10,000 for HEK293 cells and 1:2000 for LCLs), mouse anti-β-actin (Novus, 8H10D10, 1:10,000), and rabbit anti-LRRK2 pS1292 (Abcam, ab203181, 1:500). The blots were then probed with fluorescent-labeled secondary antibodies, IRDye donkey anti-mouse and anti-rabbit at 1:10,000 (LI-COR, 926-32212, 926-68072), and scanned using an Odyssey Imaging scanner (LI-COR). Fluorescence intensities were quantified using ImageStudio Lite software (LI-COR), and the signal from the protein of interest was normalized to the fluorescence intensity of either LRRK2 or β-actin. Values were averaged from at least three technical replicates within a cell line, or two biological replicates (two healthy control lines and two PD LCLs). All blots were derived from the same experiment and processed in parallel.

[3] = target: T3, LRRK2 in healthy control lymphoblastoid cells (LCLs) (Homo sapiens, UniProt Q5S007); assay: LRRK2 pSer935 western immunoblot in healthy control-derived LCLs; assay type: cell-based; conditions: 10 and 100 nM, 2 h
T3 construct: Due to the differing endogenous LRRK2 levels; host or cells: healthy subject control-derived lymphoblastoid cell lines (n = 2)
Method: PD patient G2019S LRRK2 (n = 2) and healthy subject control (n = 2)-derived LCLs were obtained from the NINDS Coriell biorepository (ID numbers are ND00011, ND00264, ND01618, ND02559). […] LCLs were cultured at 37 °C, 5% CO2, in RPMI-1640 (Sigma-Aldrich, R8758), 15% heat-inactivated fetal bovine serum (VWR Seradigm, 97068-091) and 0.5% Penicillin/Streptomycin (Corning, 30-002-CI). […] All in vitro experiments were repeated at least three times from distinct samples.
as §2, with “cells.” for “cells. Due to the differing endogenous LRRK2 levels, 40 µg of ND02559, 60 µg of ND00264, or 100 µg of ND00011 and ND01618 of protein sample was loaded. Protein samples were incubated at 100 °C for 5 min with NuPAGE Sample loading dye (Thermo Fisher, NP0007) and dithiothreitol as reducing agent.”

[4] = design: method as in PMID 33197196; conditions: cited from earlier work
[5] = system: heterozygous G2019S LRRK2 PD patient-derived LCLs; design: method as in PMID 33057100; conditions: acute treatment (1.5 h) ref 49; cited from earlier work
R1441C LRRK2 cultures = system: R1441C LRRK2 cultures; design: method as in PMID 37384414; conditions: R1441C LRRK2 cultures ref 71; cited from earlier work

T3 sequence (Q5S007 whole entry): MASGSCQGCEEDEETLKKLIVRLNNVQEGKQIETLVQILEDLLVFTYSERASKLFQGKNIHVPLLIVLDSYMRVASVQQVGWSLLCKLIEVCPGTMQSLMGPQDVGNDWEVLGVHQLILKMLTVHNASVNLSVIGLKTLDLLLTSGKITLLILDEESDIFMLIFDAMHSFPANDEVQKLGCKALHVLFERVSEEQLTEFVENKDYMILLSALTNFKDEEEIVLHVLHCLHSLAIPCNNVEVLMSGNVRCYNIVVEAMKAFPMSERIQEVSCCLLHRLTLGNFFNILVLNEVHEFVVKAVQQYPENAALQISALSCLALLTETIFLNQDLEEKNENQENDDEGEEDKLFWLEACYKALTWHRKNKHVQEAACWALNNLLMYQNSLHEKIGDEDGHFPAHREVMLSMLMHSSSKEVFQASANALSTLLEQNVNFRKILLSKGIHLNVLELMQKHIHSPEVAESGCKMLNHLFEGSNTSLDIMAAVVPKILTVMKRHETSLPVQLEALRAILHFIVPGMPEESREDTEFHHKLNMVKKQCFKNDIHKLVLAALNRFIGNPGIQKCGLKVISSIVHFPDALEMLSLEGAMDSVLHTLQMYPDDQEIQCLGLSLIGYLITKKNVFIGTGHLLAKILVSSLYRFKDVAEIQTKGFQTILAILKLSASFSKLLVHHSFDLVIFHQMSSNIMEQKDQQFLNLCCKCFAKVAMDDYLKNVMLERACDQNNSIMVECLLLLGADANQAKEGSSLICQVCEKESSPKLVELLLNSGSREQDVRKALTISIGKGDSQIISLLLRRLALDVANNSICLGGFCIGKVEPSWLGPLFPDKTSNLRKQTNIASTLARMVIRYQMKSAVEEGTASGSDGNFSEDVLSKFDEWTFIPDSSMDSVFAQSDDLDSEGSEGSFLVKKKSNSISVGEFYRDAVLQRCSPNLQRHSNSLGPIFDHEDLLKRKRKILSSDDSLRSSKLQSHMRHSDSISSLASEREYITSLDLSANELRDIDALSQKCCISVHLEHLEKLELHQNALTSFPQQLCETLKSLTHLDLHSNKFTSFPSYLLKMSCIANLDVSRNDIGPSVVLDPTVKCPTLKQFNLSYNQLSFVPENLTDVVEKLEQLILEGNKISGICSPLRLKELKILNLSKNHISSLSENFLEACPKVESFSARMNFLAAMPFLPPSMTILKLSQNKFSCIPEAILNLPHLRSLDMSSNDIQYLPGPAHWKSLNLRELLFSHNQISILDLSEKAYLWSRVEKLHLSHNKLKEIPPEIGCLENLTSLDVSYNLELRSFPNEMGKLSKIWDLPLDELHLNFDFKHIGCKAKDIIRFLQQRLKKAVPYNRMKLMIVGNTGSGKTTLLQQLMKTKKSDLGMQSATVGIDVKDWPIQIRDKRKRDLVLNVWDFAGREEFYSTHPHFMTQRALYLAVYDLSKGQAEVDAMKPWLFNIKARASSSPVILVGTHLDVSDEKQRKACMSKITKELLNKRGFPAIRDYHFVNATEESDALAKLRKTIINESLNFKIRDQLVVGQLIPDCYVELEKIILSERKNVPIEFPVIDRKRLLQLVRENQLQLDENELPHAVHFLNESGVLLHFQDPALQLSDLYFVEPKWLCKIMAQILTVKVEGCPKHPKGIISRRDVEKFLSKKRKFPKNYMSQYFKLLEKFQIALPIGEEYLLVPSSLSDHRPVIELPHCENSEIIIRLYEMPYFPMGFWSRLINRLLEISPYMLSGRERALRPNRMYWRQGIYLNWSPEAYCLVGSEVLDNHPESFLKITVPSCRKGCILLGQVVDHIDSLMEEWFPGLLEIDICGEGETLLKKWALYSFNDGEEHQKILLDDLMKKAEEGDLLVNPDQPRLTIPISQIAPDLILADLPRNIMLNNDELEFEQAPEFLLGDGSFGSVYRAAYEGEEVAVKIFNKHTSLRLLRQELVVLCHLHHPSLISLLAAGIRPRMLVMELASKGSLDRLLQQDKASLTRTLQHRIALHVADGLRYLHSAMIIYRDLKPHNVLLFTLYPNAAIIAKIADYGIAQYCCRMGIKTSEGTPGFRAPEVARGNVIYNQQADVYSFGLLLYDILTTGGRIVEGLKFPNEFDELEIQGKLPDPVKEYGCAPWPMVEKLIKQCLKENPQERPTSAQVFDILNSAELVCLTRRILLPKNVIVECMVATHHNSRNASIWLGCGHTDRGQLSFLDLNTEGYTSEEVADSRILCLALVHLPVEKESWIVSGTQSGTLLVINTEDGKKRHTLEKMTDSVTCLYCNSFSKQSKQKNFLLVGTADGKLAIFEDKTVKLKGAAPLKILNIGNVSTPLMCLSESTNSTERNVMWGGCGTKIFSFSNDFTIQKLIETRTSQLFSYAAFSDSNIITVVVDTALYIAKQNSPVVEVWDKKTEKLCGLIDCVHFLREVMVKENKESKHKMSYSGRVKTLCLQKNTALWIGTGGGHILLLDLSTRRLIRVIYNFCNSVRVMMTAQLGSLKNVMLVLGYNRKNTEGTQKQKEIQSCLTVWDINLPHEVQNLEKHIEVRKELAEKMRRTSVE
T2 sequence (Q5S007 whole entry G2019S): as the sequence (Q5S007 whole entry) above, with G2019S counted along it

## CC1=C(C(=O)Nc2ccc3[nH]nc(-c4ccnc(N5CCOCC5)c4)c3c2)C(C)(C)n2nnnc2N1C [EB-42168]
Human LRRK2 (WT-LRRK2); WT LRRK2 HEK293 cell line, 2 h treatment, 10 nM-1 μM titration, read-out: calculated half-maximal inhibition (IC50) of LRRK2 pSer935
  IC50: > 5000 nM
Human LRRK2 (WT-LRRK2); WT-LRRK2 cells, 10 nM up to 1 μM, 2 h
  effect on LRRK2 pSer935 over the concentration range (in words): no inhibition; also recorded: no change; also recorded: no detectable effect
[1]; G2019S LRRK2 HEK293 cell line, 2 h treatment, 10 nM-1 μM titration, read-out: calculated half-maximal inhibition (IC50) of LRRK2 pSer935
  IC50: 54 nM
[1]; G2019S-LRRK2 cells, 10 nM, 2 h
  decrease in LRRK2 pSer935 levels: no significant dephosphorylation
[1]; HEK293 overexpressing cells
  fold more potent on G2019S LRRK2 than WT LRRK2 (pS935 IC50): > 90 fold
[2]; G2019S-LRRK2 HEK293 cells, 2 h treatment, read-out: calculated IC50 of LRRK2 pSer1292
  IC50: 44 nM
[2]; 10 nM
  decrease in LRRK2 pSer1292 levels: 30%
[2]; 10 nM, listed as EB-42618
  decrease in LRRK2 pSer1292 levels: dephosphorylated
[2]; 100 nM
  decrease in LRRK2 pSer1292 levels: ~ 70% and 65%
[3]
  effect on LRRK2 pSer935 (in words): did not impact; also recorded: no change; also recorded: without a change
[4]
  brain penetration: poorly brain penetrant

## C[C@@H]1CN(c2cc(-c3n[nH]c4ccc(OC5(C)CC5)cc34)ncn2)C[C@H](C)O1 [MLi-2, reference compound]
[5]
  mtDNA damage: restored mtDNA damage to healthy control levels
R1441C LRRK2 cultures
  impaired mitophagy and other mitochondrial parameters: not corrected

Reference: article PMC10907374, “G2019S selective LRRK2 kinase inhibitor abrogates mitochondrial DNA damage” (NPJ Parkinson's Disease, 2024)
